# Laboratory results from patent US11898161B2, “Stem cell culture medium and method” (RIKEN, priority 2006, dated 2024).
# “And” between values parts separate entries of the source, which are not always exact repeats. Equal values may be shown once. Residues, ends and D or L forms follow the SMILES beside them. *: point of attachment. Cbz = O=C(OCc1ccccc1)*; CH2F = FC*
# Experiments:
# Format in all cases: cell-based
# [1] = tested on: human embryonic stem cells (KhES-1); assay: Cloning efficiency (colony formation) of dissociated human ES cells at low density on MEF feeder layer; conditions: for cloning efficiency compared to without the inhibitors: Fasudil/HA1077 10 μM, H-1152 200 nM, other kinase inhibitors at ranges of b100
# Excerpt: The Human embryonic stem cells used for the experiments described herein were embryonic stem cells (KhES-1, KhES-2 and KhES-3) from human blastocysts established in the laboratory of Norio Nakatsuji, at the Institute for Frontier Medical Sciences, Kyoto University, which were distributed and used (mainly KhES-1) following the human embryonic stem cell guidelines of the Japanese government. In accordance with the method of the Nakatsuji laboratory (Suemori et al., Biochem Biophys Res Commun. 345, 926-32 (2006)), undifferentiated human embryonic stem cells were cultured on a plastic culture dish with mouse embryonic fibroblasts (inactivated with mitomycin, MEF) seeded as a feeder layer of cells. More specifically, the culture medium containing comprising KSR (Invitrogen/Gibco-BRL) at the final concentration of 20%, 1×NEAA (non-essential amino acids, Invitrogen/Gibco BRL), 2 mM L-giutaminic acid and 0.1 mM 2-mercaptoethanol in D-MEM F12 (Sigma D6421) was used, and the culturing was performed at 37° C., 5% CO2. Passaging was performed in every three or four days, and the embryonic stem cells were detached from the feeder layer using the dissociation liquid (containing 0.25% trypsin, 1 mg/mi collagenase IV solution, 1 mM CaCl2 in a phosphate buffered saline; all of which from Invitrogen/Gibco-BRL), followed by dissociated into small cell clumps (of about 50-100 cells) by pipetting, and then were seeded on the feeder layer which had been formed from seeding MEF on the day before.
# The cell death inhibiting effect and the influence on cloning efficiency, of ROCK inhibitor, for the human embryonic stem cell culture after dissociation to single cells were examined as follows. […] The embryonic stem cell clumps ware dissociated to single cells by trypsin digestion (0.25% trypsin—EDTA, at 37° C. for 5 minutes), and seeded on a MEF feeder layer in 96 well culture plates at low density (500 cells/0.32 cm^2 in 0.15 ml of medium). The number of formed colonies was counted six days after culture in the maintenance culture medium. ROCK inhibitor Y-27632 was added at the concentration of 10 μM one hour prior to detaching the cells from the feeder layer, and the same amount was added to culture in the same amount after the detachment.
# The effects of other ROCK inhibitors on the cloning efficiency of human embryonic stem cells in maintenance culture were evaluated using methods as described in example 1. The ROCK inhibitors, Fasudil/HA1077 (10 μM) and H-1152 (200 nM) were used. Also, inhibitors for other kinases were used for reference. The inhibitors for other kinases used were: cAMP-Rp (1-100 μM) and KT5720 (5-500 nM), which are protein kinase A inhibitors; bisindolylmaleimide (0.01-5 μM) and staurosporine (1-50 nM), which are protein kinase C inhibitors; PD98059 (0.5-50 μM), which is an MAPK inhibitor; LY294002 (1-50 μM), which is a PI3K inhibitor; and ML-7 (0.3-30 μM), which is an MLCK inhibitor.
# [2] = tested on: human embryonic stem cells; assay: Cloning efficiency at clonal density (one cell per well, 96 well plates) on MEF; conditions: 10 μM, under 1% without inhibitor
# Experimental: The cell death inhibiting effect and the influence on cloning efficiency, of ROCK inhibitor, for the human embryonic stem cell culture after dissociation to single cells were examined as follows. […] The number of formed colonies was counted six days after culture in the maintenance culture medium. ROCK inhibitor Y-27632 was added at the concentration of 10 μM one hour prior to detaching the cells from the feeder layer, and the same amount was added to culture in the same amount after the detachment. Also, to evaluate whether promotion of cloning would be caused by the autocrine factor of human embryonic stem cell, a similar experiment was performed in 96 well culture plates at clonal density (one cell per well) of human embryonic stem cells, and the cloning efficiency was determined.
# human ES cells (KhES-1) [3] = assay: TUNEL apoptosis assay in suspension culture of dissociated human ES cells; conditions: after 2-day suspension culture; 80% in non-supplemented control
# Experimental: (§1) Human ES cells subjected to maintenance culture were detached as small cell clumps (aggregates) from feeder cells in the same manner as in Example 1, and after removal of residual feeder cells, they were dissociated into single cells by trypsin digestion. After centrifugation, 2×10^5 cells were dissociated in serum-free culture medium for post differentiation induction (Watanabe et al., Nature Neuroscience 8, 288-296, 2005; supplemented with G-MEM, KSR and 2-mercaptoethanol, KSR was added at a concentration of 20%). The singly-dissociated human ES cells (1.0×10^5 cells/ml) were suspension-cultured in a non-cell adhesive 35 mm culture plate to form aggregates, and were cultured in the same culture medium for 2-6 days (SFEB method; See the above reference of Watanabe et al.). After 2-day culture, the percentage of apoptic cells was measured by TUNEL method (MEBSTAIN Apoptosis kit Direct, MBL). Treatment with ROCK inhibitor, Y-27632, was initiated at 1 hour before cell separation in the same manner as in Example 1, and the inhibitor was added to maintenance culture medium also after dissociation. For comparison, caspase inhibitor (ZVAD; 10 μM) and BDNF/NT-3/NT-4 (mixture of 50 ng/ml each), whose apoptosis suppressive effect has been reported, were used to conduct the experiment. In addition, the number of surviving cells on day 6 was counted in each case.
# human ES cells (KhES-1) [4] = assay: Number of surviving cells in suspension culture (SFEB) of dissociated human ES cells; conditions: 8% in non-supplemented group
# Experimental: as §1
# human ES cells [5] = assay: Differentiation induction into neuronal and brain precursor cells by SFEB method from singly-dissociated human ES cells
# Excerpt: Human ES cells subjected to maintenance culture were detached from feeder cells as small cell clumps in the same manner as in Example 4, and after removal of residual feeder cells, they were dissociated into single cells by trypsin digestion. After centrifugation, cells were dissociated into culture medium for differentiation induction at 2×10^5 cells/mL, and were suspension-cultured using a non-cell adhesive culture plate to conduct serum-free culture (SFEB method) of suspended aggregates. In addition, Nodal inhibitor LeftyA (1 μg/ml, R&D), Wnt inhibitor Dkk1 (500 ng/ml, R&D) and BMP inhibitor BMPR1A-Fc (1.5 μg/ml, R&D) were added for the first 10 days after the start of culture for differentiation induction. After serum-free suspension culture for 16-35 days, the cell aggregates were fixed and immunostained by fluorescence antibody method. Treatment with the ROCK inhibitor, Y-27632, was initiated at 1 hour before cell separation in the same manner as in Example 1, and the inhibitor was added to maintenance culture medium for the first six days also after dissociation. For the differentiation into brain precursor cells, on day 25 of SFEB culture, floating cell aggregates were transferred into a poly-D-lysine/laminin/fibronectin-coated culture slide, and were cultured in an adhesion state for additional 10 days. In the adhesion culture, Neurobasal medium, supplemented with B27 (vitamin A-free) and 2 mM L-glutamine (both supplied by Gibco-BRL), was used as a culture medium.
# human ES cells (KhES-1) [6] = assay: Feeder-free culture of singly-dissociated human ES cells, colony formation; conditions: 10 μM Y-27632, feeder-free, MEF-conditioned medium, 500 cells/well; less than 0.2% untreated
# Experimental: Specifically, according to the above literature, MEF cells cultured to confluency were lysed on a culture dish by deoxycholate method to leave only extracellular matrix. Singly-dissociated human ES cells (500 cells/well of a 96-well plate) were seeded onto them under Y-2763 treatment (10 μM or 0 μM) by the same method as for the routine culture on MEF cells (abovementioned Example). Conditioned medium, in which human ES cell maintenance medium and MEF were preliminarily cultured for one day, was used as a culture medium. The number of human ES cell colonies formed 5 days later were counted.
# human ES cells [7] = assay: Maintenance culture of singly-dissociated human ES cells on MEF with different time courses of treatment (survival, growth, apoptosis); conditions: for population doubling time: days 2 to 6 after start of dissociation culture
# Experimental: As for the maintenance culture of singly-dissociated human ES cells, in order to examine whether Y-27632 promotes cell survival at the early phase of dissociation culture, Y-27632 treatment time was divided into the following three groups to compare cell survival-promoting effects in maintenance culture. Group 1: Y-27632 treatment (10 μM, same below) was conducted as 1 hour-pretreatment and only for the first 12 hours of culture after dissociation in the process of dissociation culture of human ES cells. Group 2: Y-27632 treatment was conducted as 1 hour-pretreatment and for the entire culture period after dissociation in the process of dissociation culture of human ES cells. Group 3: No Y-27632 treatment was conducted. In these groups, surviving cells on day 3 per seeded cells (5×10^4 cells per one well of a 6-well plate) were counted in maintenance culture system on MEF layer. In the same experiment as in the above Example 7, the effect of Y-27632 on the cell growth for 6 days after the start of dissociation culture was examined in Groups 1 and 2 by extending the culture period to 6 days.
# hES cells (KhES-3) = conditions: human, 3 months
# Experimental: FIGS. 4A-4L—Analysis of hES cells cultured in the presence of Y-27632 at low density. (FIGS. 4A-4C) Immunostaining of E-cadherin (FIG. 4A), Oct3/4 (FIG. 4B) and SSEA-4 (FIG. 4C) in Y-27632-treated hES cells (KhES-1) after extended passaging (30 times) at low density with Y-27632 treatment. Lower panels show DAPI staining (blue). (FIGS. 4D-4G) Histological analysis (hematoxylin-eosin staining, […] paraffin section) of teratoma tissues formed after subcapsular injection of hES cells (KhES-1) following extended passaging with Y-27632 into SCID mouse testes. (FIG. 4D) Cartilage, (FIG. 4E) neuroepithelium, (FIG. 4F) pigmented epithelium, and (g) gut-like mucosa with columnar epithelium. (FIG. 4H, FIG. 4I) After extended passaging involving low-density culture with Y-27632 treatment, efficient colony formation from dissociated hES cells (32.5±11%; KhES-1) remained dependent on Y-27632 (FIG. 4I) and few colonies were seen without it (FIG. 4H). (FIG. 4J) Dose-response relationship of two selective ROCK inhibitors (Y-27632, Fasudil; the cloning efficiency was 1.3±0.8% and 25.1±1.6% without and with 10 μM Fasudil; P<0.001, n=3) and two unrelated kinase inhibitors (cAMP-Rp, LY294002) on colony formation (KhES-1). Y-axis, ratios of promoting activity of colony formation to that with 10 μM Y-27632. […]
structure (smiles),measurement,setting,value
O=S(=O)(c1cccc2cnccc12)N1CCCNCC1 [Fasudil],cloning efficiency,"[1]; 10 μM Fasudil, KhES-1, 1.3±0.8% without, P<0.001, n=3",25.1±1.6%
same,cloning efficiency compared to without the inhibitors,[1],significant enhanced cloning efficiencies
Cc1cncc2cccc(S(=O)(=O)N3CCCNC[C@@H]3C)c12 [H-1152],cloning efficiency compared to without the inhibitors,[1],significant enhanced cloning efficiencies
C[C@@H](N)[C@H]1CC[C@H](C(=O)Nc2ccncc2)CC1 [Y-27632],cloning efficiency (ratio of formed colonies to initially seeded human embryonic stem cells),"[1]; 10 μM Y-27632, 500 cells/well on MEF, six days culture, 1% without inhibitor",27%
same,colony formation from dissociated hES cells after extended passaging,"[1]; KhES-1 after extended passaging (low-density culture with Y-27632 treatment), few colonies without it",32.5±11%
same,cloning efficiency,[2],25%
same,TUNEL-positive (apoptotic) cells,human ES cells (KhES-1) [3],9%
same,surviving cells on day 6 (of plated cells),human ES cells (KhES-1) [4],70%
same,Oct3/4 positive cells (undifferentiated-state ES cell marker),human ES cells [5]; day 24 of differentiation culture,less than 10%
same,Pax6-positive cells,"human ES cells [5]; day 24 of differentiation culture, Y-27632 first six days, with LeftyA, Dkk1, BMPR1A-Fc",about 80%
same,cell aggregates with many Bf1 positive cells (brain precursor marker),human ES cells [5]; day 35 of differentiation culture,about 60%
same,"cloning efficiency per seeded human ES cell, feeder-free",human ES cells (KhES-1) [6],10.2% and 10.2±1.2%
same,surviving cells on day 3 per seeded cells,"human ES cells [7]; Group 1: 10 μM, 1 hour pretreatment and first 12 hours after dissociation only",270%
same,number of cells on day 6 relative to initially seeded cells,human ES cells [7]; Group 1: first 12 hours only,670%
same,population doubling time,human ES cells [7]; Group 1,49.0 h
same,surviving cells on day 3 per seeded cells,"human ES cells [7]; Group 2: 10 μM, 1 hour pretreatment and entire culture period",290%
same,number of cells on day 6 relative to initially seeded cells,human ES cells [7]; Group 2: entire culture period,860%
same,population doubling time,human ES cells [7]; Group 2,41.5 h
same,percentage of apoptosis (active Caspase 3-positive cells),"human ES cells [7]; both Groups 1 and 2, days 3 and 5",less than 1%
same,normal karyotype,hES cells (KhES-3),100%
COC(=O)C[C@H](NC(=O)[C@H](C)NC(=O)[C@@H](NC(=O)OCc1ccccc1)C(C)C)C(=O)CF [ZVAD] (Cbz-Val-Ala-Asp(OMe)-CH2F),TUNEL-positive (apoptotic) cells,human ES cells (KhES-1) [3],72%
